# Test results published in PMC8704709, “Improved Anticancer Activities of a New Pentafluorothio-Substituted Vorinostat-Type Histone Deacetylase Inhibitor” (Pharmaceuticals, 2021).
# What was measured:
# SMZ1 cells = assay: IC50 by Annexin-V/7AAD dual staining, flow cytometry; assay type: cell-based; conditions: Homo sapiens, as determined after 48 h, means ± SEM, n ≥ 3, read-out: Growth inhibitory activity IC50, SMZ1
# Procedure: Stock solutions (10 mM) prepared by dissolution in DMSO were stored at −20 °C. Working solutions were always freshly prepared before each experiment by dilution of stock solution with medium. The final DMSO concentration never exceeded 0.25%. Treatment-induced changes in cell number were determined by crystal violet (N-hexamethylpararosaniline from Sigma Aldrich) staining. 1000 cells/well (DU145) or 1500 cells/well (Hep-G2) were seeded in 96-well plates and maintained for adherence in an incubator (37 °C, 5% CO2, humidified atmosphere) for 48 h prior to the beginning of the treatment. […] Thereafter, the cells were fixed with 1% glutaraldehyde and stained with 0.1% crystal violet. The unbound dye was removed by rinsing with water. Bound crystal violet was solubilized with 0.2% Triton X-100 (Sigma-Aldrich). Light extinction of crystal violet, which increases linearly with the cell number, was analyzed at 570 nm using an ELISA-Reader (Dynex Technologies, Denkendorf, Germany). For T-cell leukemia/lymphoma cell lines apoptosis was determined using dual staining for Annexin-V and 7AAD via flow cytometry.
# DU145 cells [1] = assay: Unspecific cytotoxicity (LDH release); assay type: cell-based, human; conditions: 1–10 µM, 3 and 24 h
# Procedure: To exclude unspecific cytotoxicity as the driving mode of action for antiproliferative effects, the release of lactate dehydrogenase (LDH) from DU145 cells was determined after 3 h and 24 h of treatment using the Cytotoxicity Detection Kit PLUS LDH (Roche Diagnostics GmbH, Mannheim, Germany). The assay was performed as described earlier. Cytotoxicity was determined by subtracting the percentage of LDH release into the supernatant under control conditions of those from treated samples. Measurements were performed in duplicate in n = 3 independent experiments and mean percentage changes ± SEM as compared to controls are shown.
# Hep-G2 cells [2] = assay: Unspecific cytotoxicity (LDH release); assay type: cell-based, human; conditions: 1–10 µM, 3 and 24 h
# [3] = test system: caspase-3 activity in DU145 cells; assay: Apoptosis-specific caspase-3 activation (AC-DEVD-AMC cleavage); assay type: cell-based, human; conditions: 24 h treatment, 1–10 µM
# Procedure: (§1) Changes in caspase-3 activity were measured by the cleavage of the fluorogenic substrate AC-DEVD-AMC (EMD Millipore, Billerica, MA, USA), as described previously. […] Subsequently, the lysates were incubated for 1 h at 37 °C with a substrate solution containing 20 μg/mL AC-DEVD-AMC, 20 mM HEPES, 10% glycerol and 2 mM DTT at pH 7.5.
# [4] = test system: caspase-3 activity in Hep-G2 cells; assay: as above; assay type: cell-based, human; conditions: 24 h treatment, 1–10 µM
# Procedure: as §1
# DU145 cells [5] = assay: Cytosolic ROS formation (CellROX Orange fluorescence microscopy); assay type: cell-based, human; conditions: 6–24 h
# Procedure: (§2) Untreated cells incubated with 1.6 mM H2O2 for 30 min served as positive controls. CellROX® Orange reagent (1 µM) was applied, when adding the test compounds. Formation of ROS was measured after 3 h, 6 h, 12 h (not shown) and 24 h using ZOE™ Fluorescent Cell Imager (Biorad, Munich, Germany). n = 3 independent experiments performed in triplicate for each condition.
# Hep-G2 cells [6] = assay: as above; assay type: cell-based, human; conditions: 6–24 h
# Procedure: as §2
# DU145 cells [7] = assay: Western blot in DU145 cells (acetyl-H3, PARP, EGFR, P-mTOR); assay type: cell-based, human; conditions: 24 h
# Procedure: (§3) Western blots were performed as described earlier. Cells were seeded in 100 mm petri dishes, grown to almost confluency, treated for 24 h, washed and frozen, followed by lysis with RIPA Buffer, added with one cOmplete™ Mini protease Inhibitor tablet/10 mL (Roche), and quantification with Pierce^TM BCA Protein Assay Kit (Thermo Fisher Scientific). Thereafter protein levels were normalized to untreated controls so equal protein loading of 20 µg/lane. Laemmli Buffer and β-mercaptoethanol were added before probes were desaturated at 96 °C for 10 min. First, 7.5% or 12% SDS gels (Biorad, Munich, Germany) were loaded with proteins and electrophoresis was done. Thereafter, proteins were transferred to activated polyvinylidene difluoride membranes (PVDF) by electroblotting. Finally, the membranes were blocked with 1% BSA and incubated with primary antibodies over night at 4 °C.
# (§4) Blots were washed three times with 1% TBS-Tween and incubated with anti-mouse or anti-rabbit peroxidase-coupled anti-IgG secondary antibodies (1:5000–1:10,000) at room temperature for 60 min. Subsequently, antibody bondage was illustrated using Clarity and Clarity Max ECL Western Blotting Substrates (Biorad, Munich, Germany) for detection and Celvin-S developer (Biostep, software SnapAndGo Vs 1.8.1) for development. […] Values were normalized to β-actin expression, which served as a loading control and compared to untreated control expressions which was set at 1. The mean ± SEM of the relative values to control are illustrated with Graph Pad Prism 8.
# Hep-G2 cells [8] = assay: Western blot in Hep-G2 cells (acetyl-H3, Apaf-1, Bcl-2); assay type: cell-based, human; conditions: 24 h
# Procedure: as §3, with “°C. […] Only the Jurkat cells had already a high level of α-tubulin in untreated cells and, thus, drug-induced changes were not detectable in these cells.” for “°C.”
# as §4
smiles,measurement,setting,value
"O=C(CCCCCCC(=O)Nc1ccccc1)NO [SAHA, suberoylanilide hydroxamic acid, reference compound]",IC50,SMZ1 cells,2870 ± 330 nM
same,LDH release (unspecific cytotoxicity),DU145 cells [1],no relevant induction of unspecific cytotoxicity
same,LDH release (unspecific cytotoxicity),Hep-G2 cells [2],no relevant induction of unspecific cytotoxicity
same,caspase-3 activation,[3],comparable caspase-3 inductions
same,caspase-3 activation,[4],comparable caspase-3 inductions
same,cytosolic ROS formation,DU145 cells [5],much weaker ROS increase
same,cytosolic ROS formation,Hep-G2 cells [6],much weaker ROS increase
same,EGFR protein expression,DU145 cells [7],pronounced and significant suppression in the expression of the EGFR
same,acetylated histone H3 level,DU145 cells [7],dose-dependent rise of H3 acetylation
same,acetylated histone H3 level,Hep-G2 cells [8],dose-dependent rise of H3 acetylation
